The experiment has as its target T1, FGFR1 (Homo sapiens, UniProt P11362).
T1 construct: purchased Invitrogen PV4105
The experiment can be described thus: Z′-LYTE Detection Kinase Assay, in vitro enzymatic activity. Type of experiment: biochemical. Conditions: 0.6 nM FGFR1, 2 uM Tyr4 peptide, 10 uM ATP, 60 min 23° C. The procedure:
To measure enzyme activity by Z′-LYTE™ Detection Kinase Assay, and to evaluate the inhibitory effect of the compounds on FGFR1 using IC50 value of the compounds as an indicator. […]
Reaction Buffer: 50 mM Hepes (pH 7.5), 10 mM MgCl2, 1 mM EGTA, 0.01% Brij-35, 1 mM DTT, 2 mM MnCl2 0.6 nM FGFR1, 2 uM Tyr4 peptide and 10 uM ATP in reaction buffer (50 mM Hepes, pH 7.5, 10 mM MgCl2, 0.01% BRIJ-35, 1 mM EGTA, 4 mM MnCl2, 2 mM DTT). a. Diluting the compounds with DMSO to 10 mM, 3-fold dilution, 11 gradients, duplicate wells. b. Diluting the compound by 1:25 into middle plate at Bravo Automatic Liquid Station, then transferring 2.5 ul to the reaction plate to ensure the final DMSO concentration to be 1%. c. Transferring 5 ul of enzyme/substrate buffer into each well d. Using Multidrop Liquid Workstation to sequentially add ATP solution to each well e. Centrifuging at 1000 rpm for 1 minute f. Placing the reaction plate in an incubator at 23° C. to react for 60 min. a. Preparing a 1:128 mixture of Development Regent B and Development Buffer b. Adding 5 ul to each well and centrifuging at 1000 rpm for 1 minute c. Placing the reaction plate in a thermostat (23° C.) after centrifuging for 90 minutes, removing and reading on Envision (Perkin Elmer) Plate Reader
D. Analyzing Data: Analyzing Data Using XLFIT (IDBS) and Calculating IC50 Values for the Compounds.

Consider 47 molecules from patent US10519133B2, “Vinyl compounds as FGFR and VEGFR inhibitors” (MEDSHINE DISCOVERY INC., priority 2015, dated 2019).

Some results are limits rather than exact numbers.

T1 sequence (P11362 22-822): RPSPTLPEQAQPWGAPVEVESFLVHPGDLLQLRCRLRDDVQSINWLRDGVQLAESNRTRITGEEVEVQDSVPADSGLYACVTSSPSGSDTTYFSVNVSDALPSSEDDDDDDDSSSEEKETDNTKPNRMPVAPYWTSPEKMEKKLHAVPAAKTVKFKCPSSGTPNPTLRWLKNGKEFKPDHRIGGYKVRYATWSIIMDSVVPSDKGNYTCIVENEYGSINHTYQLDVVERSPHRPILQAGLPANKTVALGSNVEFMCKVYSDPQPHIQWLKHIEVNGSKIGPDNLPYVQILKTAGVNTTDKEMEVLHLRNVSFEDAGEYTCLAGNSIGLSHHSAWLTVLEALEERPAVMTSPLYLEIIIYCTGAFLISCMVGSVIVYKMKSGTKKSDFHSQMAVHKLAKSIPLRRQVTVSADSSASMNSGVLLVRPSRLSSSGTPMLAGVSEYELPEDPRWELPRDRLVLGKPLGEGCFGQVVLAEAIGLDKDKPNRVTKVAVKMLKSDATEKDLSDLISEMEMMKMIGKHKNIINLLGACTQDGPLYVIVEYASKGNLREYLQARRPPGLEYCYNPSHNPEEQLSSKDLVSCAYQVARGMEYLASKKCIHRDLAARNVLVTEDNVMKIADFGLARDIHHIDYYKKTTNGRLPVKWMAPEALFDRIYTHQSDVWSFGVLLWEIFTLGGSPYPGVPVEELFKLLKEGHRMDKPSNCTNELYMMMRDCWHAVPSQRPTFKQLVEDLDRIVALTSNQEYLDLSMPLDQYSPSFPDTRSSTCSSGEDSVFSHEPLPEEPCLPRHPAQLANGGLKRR

Consider `C[C@@H](Oc1ccc2[nH]nc(/C(F)=C\c3ccc(CN4CCOCC4)nc3)c2c1)c1c(Cl)cncc1Cl` [Example 2], for which the IC50 is 50 to 1000 nM. In the case of `CCN(Cc1ccc(/C=C/c2n[nH]c3ccc(OC(C)c4c(Cl)cncc4Cl)cc23)cc1)C1CCCCC1` (centres unmarked) [Example 104], the IC50 was 50 to 1000 nM. As for `C[C@@H](Oc1ccc2[nH]nc(/C=C/c3cccc(CN4CCC(O)C4)c3)c2c1)c1c(Cl)cncc1Cl` (some centres unmarked) [Example 134], the IC50 was not above 10 nM. For `CC(Oc1ccc2[nH]nc(/C=C/c3ccc(CN4CC[C@@H](N(C)C)C4)cc3)c2c1)c1c(Cl)cncc1Cl` (some centres unmarked) [Example 73], the IC50 was not above 10 nM.

The molecule `CC(Oc1ccc2[nH]nc(/C=C/c3ccc(CN4CCOCC4)cc3Cl)c2c1)c1c(Cl)cncc1Cl` (centres unmarked) [Example 55] had an IC50 of 50 to 1000 nM. `C[C@@H](Oc1ccc2[nH]nc(/C=C/c3cccc(CNC4CCOCC4)c3)c2c1)c1c(Cl)cncc1Cl` [Example 132] returned an IC50 not above 10 nM.

In turn, `CC(Oc1ccc2[nH]nc(/C=C/c3ccc(CN4CCCCC4)cc3)c2c1)c1c(Cl)cncc1Cl` (centres unmarked) [Example 81] showed an IC50 not above 10 nM.

`CC(Oc1ccc2[nH]nc(/C(F)=C/c3ccc(CNC4CCOCC4)nc3)c2c1)c1c(Cl)cncc1Cl` (centres unmarked) [Example 10] had an IC50 of 10 to 50 nM. In turn, `CC(Oc1ccc2[nH]nc(/C=C(\F)c3ccc(CNC4CCOCC4)nc3)c2c1)c1ccc(F)cc1Cl` (centres unmarked) [Example 143] returned an IC50 of 50 to 1000 nM. The molecule `CC(Oc1ccc2[nH]nc(-c3ccc(C(=O)N4CCN(C)CC4)cc3)c2c1)c1c(Cl)cncc1Cl` (centres unmarked) [Example 116] returned an IC50 of 50 to 1000 nM.

`CC(Oc1ccc2[nH]nc(-c3ccc(C(=O)N4CCNCC4C)cc3)c2c1)c1c(Cl)cncc1Cl` (centres unmarked) [Example 126] gave an IC50 of 50 to 1000 nM.

`CC(Oc1ccc2[nH]nc(/C=C/c3ccc(CN4CCc5ccccc5C4)cc3)c2c1)c1c(Cl)cncc1Cl` (centres unmarked) [Example 80] registered an IC50 of 50 to 1000 nM. For the molecule `C[C@@H](Oc1ccc2[nH]nc(/C=C/c3ccc(CN4CCC(CO)CC4)nc3)c2c1)c1c(Cl)cncc1Cl` [Example 140], the IC50 was in the range of 10 to 50 nM.

In turn, `C[C@@H](Oc1ccc2[nH]nc(/C=C/c3ccc(CNC4CCOCC4)nn3)c2c1)c1c(Cl)cncc1Cl` [Example 68] came in with an IC50 not above 10 nM. Take `CC(Oc1ccc2[nH]nc(/C(F)=C/c3ccc(CN4CCOCC4)nn3)c2c1)c1c(Cl)cncc1Cl` (centres unmarked) [Example 13]: the IC50 was in the range of 50 to 1000 nM. `CC1CN(Cc2ccc(/C=C/c3n[nH]c4ccc(OC(C)c5c(Cl)cncc5Cl)cc34)cc2)CC(C)O1` (centres unmarked) [Example 108] registered an IC50 of 50 to 1000 nM.

`C[C@@H](Oc1ccc2[nH]nc(-c3cccc(C(=O)N4CC[C@H](O)C4)c3)c2c1)c1c(Cl)cncc1Cl` [Example 129] gave an IC50 of 50 to 1000 nM. With `CCN1CCC(C(C)Oc2ccc3[nH]nc(/C=C/c4ccc(CN5CCOCC5)cc4)c3c2)CC1` (centres unmarked) [Example 148] the figure was 50 to 1000 nM; with `CC(Oc1ccc2[nH]nc(/C=C/c3ccc(CN(CCN(C)C)Cc4ccccc4)cc3)c2c1)c1c(Cl)cncc1Cl` (centres unmarked) [Example 86], 50 to 1000 nM; with `C[C@@H](Oc1ccc2[nH]nc(/C=C/c3ccc(CN4CCC(O)C4)nn3)c2c1)c1c(Cl)cncc1Cl` (some centres unmarked) [Example 69], not above 10 nM. As for `CC(Oc1ccc2[nH]nc(/C=C/c3ncc(CN4CCOCC4)cn3)c2c1)c1c(Cl)cncc1Cl` (centres unmarked) [Example 52], the figure is 50 to 1000 nM. As for `C[C@@H](Oc1ccc2[nH]nc(/C(F)=C/c3ccc(CN4CCOCC4)nc3)c2c1)c1c(Cl)cncc1Cl` [Example 4], the figure is 50 to 1000 nM; as for `[2H]C([2H])(c1ccc(/C=C/c2n[nH]c3ccc(OC(C)c4c(Cl)cncc4Cl)cc23)nn1)N1CCOCC1` (centres unmarked) [Example 65], not above 10 nM; as for `CC(=O)N1CCN(Cc2ccc(/C=C/c3n[nH]c4ccc(OC(C)c5c(Cl)cncc5Cl)cc34)cc2)CC1` (centres unmarked) [Example 109], not above 10 nM. Consider `CC(Oc1ccc2[nH]nc(/C=C(\F)c3ccc(CNC4CCOCC4)nc3)c2c1)c1cc(F)cc(F)c1` (centres unmarked) [Example 144], for which the IC50 was not above 10 nM. `CC(Oc1ccc2[nH]nc(/C=C/c3ccc(CN4CCOCC4)cc3C#N)c2c1)c1c(Cl)cncc1Cl` (centres unmarked) [Example 60]: the IC50 lay in the range of 50 to 1000 nM.

As to `CC(Oc1ccc2[nH]nc(-c3ccc(C(=O)N4CCN(C(C)C)CC4)cc3)c2c1)c1c(Cl)cncc1Cl` (centres unmarked) [Example 117], the IC50 is 50 to 1000 nM. Take `CC(Oc1ccc2[nH]nc(/C=C/c3ccc(CN4CCOCC4)nc3)c2c1)c1c(Cl)cncc1Cl` (centres unmarked) [Example 48]: the IC50 was not above 10 nM. For the molecule `CC(Oc1ccc2[nH]nc(-c3ccc(C(=O)N4CCC(N(C)C)CC4)cc3)c2c1)c1c(Cl)cncc1Cl` (centres unmarked) [Example 115], the IC50 was in the range of 10 to 50 nM. For the molecule `CC(Oc1ccc2[nH]nc(-c3ccc(C(=O)NCCN4CCOCC4)cc3)c2c1)c1c(Cl)cncc1Cl` (centres unmarked) [Example 125], the 50% inhibitory concentration (IC50) is 50 to 1000 nM. In the case of `C[C@H](Oc1ccc2[nH]nc(/C(F)=C/c3ccc(CN4CCOCC4)nc3)c2c1)c1c(Cl)cncc1Cl` [Example 5], the IC50 was in the range of 50 to 1000 nM. With `CC(Oc1ccc2[nH]nc(/C=C/c3ccc(CNCc4ccccc4)cc3)c2c1)c1c(Cl)cncc1Cl` (centres unmarked) [Example 87] the figure was 50 to 1000 nM; with `CC(Oc1ccc2[nH]nc(/C=C/c3ccc(CN4CCC(Cc5ccccc5)CC4)cc3)c2c1)c1c(Cl)cncc1Cl` (centres unmarked) [Example 90], 50 to 1000 nM; with `CC(Oc1ccc2[nH]nc(/C=C/c3ccc(CN4CCOCC4)c4ccccc34)c2c1)c1c(Cl)cncc1Cl` (centres unmarked) [Example 56], 50 to 1000 nM. `CCN(Cc1ccccc1)Cc1ccc(/C=C/c2n[nH]c3ccc(OC(C)c4c(Cl)cncc4Cl)cc23)cc1` (centres unmarked) [Example 91]: the IC50 fell in the range of 50 to 1000 nM. `C[C@H](Oc1ccc2[nH]nc(/C(F)=C\c3ccc(CN4CCOCC4)nc3)c2c1)c1c(Cl)cncc1Cl` [Example 3]: the IC50 lay in the range of 50 to 1000 nM. With `CC(Oc1ccc2[nH]nc(/C=C/c3cnc(CN4CCOCC4)nc3)c2c1)c1c(Cl)cncc1Cl` (centres unmarked) [Example 51], the IC50 is not above 10 nM. With `CC(Oc1ccc2[nH]nc(/C=C(\F)c3ccc(CNC4CCOCC4)nc3)c2c1)c1c(F)cccc1Cl` (centres unmarked) [Example 145] the figure was 50 to 1000 nM; with `CC(Oc1ccc2[nH]nc(/C=C/c3cncc(CN4CCOCC4)c3)c2c1)c1c(Cl)cncc1Cl` (centres unmarked) [Example 50], not above 10 nM. `C[C@@H](Oc1ccc2[nH]nc(/C=C(\F)c3ccc(CN4CCN(CCO)CC4)nc3)c2c1)c1c(Cl)cncc1Cl` [Example 27]: the IC50 is not above 10 nM. Regarding `CC(Oc1ccc2[nH]nc(/C=C/c3ccc(CNC4CCOCC4)cc3)c2c1)c1c(Cl)cncc1Cl` (centres unmarked) [Example 78], the IC50 was not above 10 nM. With `CC(Oc1ccc2[nH]nc(/C=C(\F)c3ccc(CNC4CCOCC4)nc3)c2c1)c1c(F)cccc1F` (centres unmarked) [Example 147] the figure was 50 to 1000 nM; with `CC(Oc1ccc2[nH]nc(-c3ccc(C(=O)N4CC[C@@H](N(C)C)C4)cc3)c2c1)c1c(Cl)cncc1Cl` (some centres unmarked) [Example 121], 50 to 1000 nM.

As to `CC(Oc1ccc2[nH]nc(/C=C/c3ccc(N4CCN(C)CC4)nc3)c2c1)c1c(Cl)cncc1Cl` (centres unmarked) [Example 71], the IC50 lay within 10 to 50 nM. As for `CC(Oc1ccc2[nH]nc(/C(F)=C/c3ccc(CN4CCC(CO)CC4)nc3)c2c1)c1c(Cl)cncc1Cl` (centres unmarked) [Example 9], the IC50 was 10 to 50 nM. With `C[C@@H](Oc1ccc2[nH]nc(/C=C/c3cccc(CN4CCC(CO)CC4)c3)c2c1)c1c(Cl)cncc1Cl` [Example 135], the IC50 was not above 10 nM. With `CC(Oc1ccc2[nH]nc(/C=C(\F)c3ccc(CNC4CCOCC4)nc3)c2c1)c1c(F)cncc1F` (centres unmarked) [Example 146], the IC50 was not above 10 nM.

By IC50 is commonly meant the concentration needed to halve the response being measured. A higher IC50 goes with weaker potency in that assay.
